One block for each compound: values may come before it.
Tests used:
[1] = Blood levels of the clavulanate after oral dosing in mice, determined by β-lactamase inhibition assay; format: in vivo; conditions: mouse
Excerpt: These compounds were adminstered in 10% dimethylformamide/90% olive oil. […]
(§1) An antibacterial assay was used to determine levels of benzyl penicillin in blood samples. A P-lactamase inhibition assay was employed to determine levels of the clavulanate in the samples.

[2] = Blood levels of benzyl penicillin after oral dosing in mice, determined by antibacterial assay; conditions: mouse, in vivo, 60 mg/kg
Experimental: […] These compounds were adminstered in 10% dimethylformamide/90% olive oil. The dose was equivalent to approximately 62 mg/kg of benzyl penicillin and 38 mg/kg of the clavulanate.
as §1

SMILES: O=C(O)[C@H]1/C(=C/CO)O[C@@H]2CC(=O)N21 [clavulanic acid]
concentration at 0.25 h ([1]; blood, mice, clavulanic acid alone at 20 mg/kg, 15' after administration, mean results from several experiments, read-out: Blood levels of clavulanic acid): 5900 ng/mL
concentration at 0.5 h ([1]; blood, mice, clavulanic acid alone at 20 mg/kg, 30' after administration, mean results from several experiments, read-out: Blood levels of clavulanic acid): 2300 ng/mL
concentration at 0.75 h ([1]; blood, mice, clavulanic acid alone at 20 mg/kg, 45' after administration, mean results from several experiments): 1040 ng/mL
concentration at 1 h ([1]; blood, mice, clavulanic acid alone at 20 mg/kg, 60' after administration, mean results from several experiments, read-out: Blood levels of clavulanic acid): 530 ng/mL
concentration at 1.5 h ([1]; blood, mice, clavulanic acid alone at 20 mg/kg, 90' after administration, mean results from several experiments): 340 ng/mL
concentration at 2 h ([1]; blood, mice, clavulanic acid alone at 20 mg/kg, 120' after administration, mean results from several experiments, read-out: Blood levels of clavulanic acid): ≤ 300 ng/mL

concentration at 0.25 h ([1]; in vivo, 20 mg/kg): 7500 ng/mL
concentration at 0.5 h ([1]; in vivo, 20 mg/kg): 3850 ng/mL
concentration at 1 h ([1]; in vivo, 20 mg/kg): 1500 ng/mL
concentration at 2 h ([1]; in vivo, 20 mg/kg): 200 ng/mL
Blood levels of clavulanic acid methyl ether ([1]; in vivo, 20 mg/kg, 1.5 h): 450 ng/mL
SMILES: COC/C=C1\O[C@@H]2CC(=O)N2[C@H]1C(=O)O [Clavulanic acid methyl ether]

SMILES: CC1(C)S[C@@H]2[C@H](NC(=O)Cc3ccccc3)C(=O)N2[C@H]1C(=O)O [benzyl penicillin]
concentration at 0.25 h [2]: 1390 ng/mL
concentration at 0.5 h [2]: 1050 ng/mL
concentration at 0.75 h [2]: 1250 ng/mL
concentration at 1 h [2]: 620 ng/mL
concentration at 1.5 h [2]: 550 ng/mL
concentration at 2 h [2]: 320 ng/mL
Blood levels of benzyl penicillin ([2]; 0.25 h): 1390 ng/mL
Blood levels of benzyl penicillin ([2]; 0.5 h): 1050 ng/mL
Blood levels of benzyl penicillin ([2]; 0.75 h): 1250 ng/mL
Blood levels of benzyl penicillin ([2]; 1 h): 620 ng/mL
Blood levels of benzyl penicillin ([2]; 1.5 h): 550 ng/mL
Blood levels of benzyl penicillin ([2]; 2 h): 320 ng/mL
